{"source": "patent US10766902B2", "about": "“Wee-1 inhibiting pyrazolopyrimidinone compounds” (ALMAC DISCOVERY LIMITED, priority 2016, dated 2020)", "key": {"[1]": {"test_system": "phosphorylation of Cdc2 at Tyr15", "assay": "ELISA for phosphorylation of Cdc2 at Tyr15 in HT-29 / HCT-116 cells", "type": "cell-based", "details": "Homo sapiens", "protocol": "Method 2: Determining the Effect of Compounds on the Phosphorylation of Cdc2 at Tyr15\nThe colorectal cancer cell lines HT-29 and HCT-116 were purchased from the ATCC and routinely maintained in McCoy's Medium (Invitrogen) supplemented with 10% Foetal Calf Serum.\nThe cells were trypsinised from their growing vessel and counted, 100 μL of cell suspension containing 6000 cells was pipetted into black 96 well Co-star plates and incubated overnight to allow adherence to the surface at a temperature of 37° C. and an atmosphere of 5% CO2. Test compounds were formulated in DMSO and diluted in foetal calf serum supplemented medium. Incubating medium was removed by aspiration and diluted drug supplemented medium added to each well.\nThe plate was returned to the incubator for an additional eight hours at 37° C. and an atmosphere of 5% CO2. Post incubation, the drug supplemented medium was aspirated from each well and the cells were washed once in ice-cold phosphate buffered saline (PBS). 100 μL of cell lysis buffer (Cell Signalling Technologies #9803) containing 20 mM Tris, 150 mM NaCl, 1 mM EDTA, 1 mM EGTA, 1% Triton-X100, 2.5 mM sodium pyrophosphate, 1 mM glycerophosphate, 1 mM Na3VO4 and 1 μg/mL leupeptin was added to each well of the 96 well plate and incubated at 4° C. for 30 min. The samples on the plate were snap frozen at −80° C. until required. Immediately before the continuation of the assay, the sample plate was thawed and centrifuged at 4° C. for 10 min and the supernatant transferred to secondary tubes or 96 well plate.\nCell supernatant was mixed in a ratio of 1:1 with sample dilutent buffer and vortexed for one minute. 100 μL of diluted sample was pipetted into pre-coated plates containing a rabbit polyclonal antibody for phospho-cdc2 (Tyr15) (Cell Signalling Technologies PathScan kit #7176). The plate was sealed and incubated overnight at 4° C.\nThe plate seal was removed and the well contents aspirated, followed by 3×5 min washes with 200 μL of diluted wash buffer. Between each wash the plate was tapped firmly onto blotting paper to ensure the removal of all kit solution. 100 μL of kit detection antibody was added to each well and the plate re-sealed and incubated at 37° C. for 1 h. Post incubation the plate was washed and processed in a similar manner to that previously described.\n100 μL of horseradish peroxidise-linked secondary antibody was added to each test well, the plate sealed and incubated for thirty minutes at 37° C. Post incubation, the plate was washed as previously stated, followed by the addition of 100 μL of 3,3′,5,5′ tetramethylbenzidine (TMB reagent). The plate was sealed and incubated at RT for 30 min.\n100 μL of stop solution was added to each well and the underside of the plate wiped with a lint-free tissue, prior to spectrophotometric determination. Absorbance from each well was read at 450 nm within 30 min of the addition of the stop solution.\nThe percentage of phospho-cdc2 was calculated compared to DMSO control and plotted versus the concentration of inhibitor using GraphPad Prism. Data was fitted using non-linear regression analysis and IC50 values generated."}, "HT29 cells": {"test_system": "HT29 cells", "assay": "Cell viability (CellTiter-Glo), HT29", "type": "cell-based", "details": "Homo sapiens, HT-29; cell viability after 72 hours", "protocol": "All cell lines (HT29, A427, A498, SKLU-1) were obtained from the American Type Culture Collection (ATCC), maintained in the recommended media supplemented with 10% (v/v) FBS, 1% (v/v) Penicillin/streptomycin and kept at 37° C. in a humidified atmosphere with 5% CO2. Cells were seeded in 96 wp format typically at a seeding density of 3500-5000 cells/well and treated after 24 hours with increasing concentration of compound from 0 to 100 μM in ½ log unit increments. Cell viability was assessed after 72 hours (HT29, A427) or after 6 days (SKLU-1, A498) by CellTiter-Glo® as recommended by the manufacturer's instructions (Promega). Analysis and EC50 values were derived using GraphPadPrism."}, "AKT1 (PKB alpha)": {"biological_target": "AKT1 (PKB alpha) (Homo sapiens (Human), UniProt P31749)", "assay": "SelectScreen Kinase Profiling: AKT1 (PKB alpha)", "type": "biochemical", "details": "tested at 300-350 nM", "source_text": "(§1) Table 4 below highlights the selectivity of a representative compound of the invention, Example 5, against a panel of 50 kinases (assessed using the Invitrogen SelectScreen® Kinase Profiling Service)."}, "BTK": {"biological_target": "BTK (Homo sapiens (Human), UniProt Q06187)", "assay": "SelectScreen Kinase Profiling: BTK", "type": "biochemical", "details": "tested at 300-350 nM", "source_text": "as §1"}, "CDK1/cyclin B": {"biological_target": "CDK1/cyclin B (Homo sapiens (Human), UniProt P06493)", "assay": "SelectScreen Kinase Profiling: CDK1/cyclin B", "type": "biochemical", "details": "tested at 300-350 nM", "source_text": "as §1"}, "CHEK1 (CHK1)": {"biological_target": "CHEK1 (CHK1) (Homo sapiens (Human), UniProt O14757)", "sequence (O14757 whole entry)": "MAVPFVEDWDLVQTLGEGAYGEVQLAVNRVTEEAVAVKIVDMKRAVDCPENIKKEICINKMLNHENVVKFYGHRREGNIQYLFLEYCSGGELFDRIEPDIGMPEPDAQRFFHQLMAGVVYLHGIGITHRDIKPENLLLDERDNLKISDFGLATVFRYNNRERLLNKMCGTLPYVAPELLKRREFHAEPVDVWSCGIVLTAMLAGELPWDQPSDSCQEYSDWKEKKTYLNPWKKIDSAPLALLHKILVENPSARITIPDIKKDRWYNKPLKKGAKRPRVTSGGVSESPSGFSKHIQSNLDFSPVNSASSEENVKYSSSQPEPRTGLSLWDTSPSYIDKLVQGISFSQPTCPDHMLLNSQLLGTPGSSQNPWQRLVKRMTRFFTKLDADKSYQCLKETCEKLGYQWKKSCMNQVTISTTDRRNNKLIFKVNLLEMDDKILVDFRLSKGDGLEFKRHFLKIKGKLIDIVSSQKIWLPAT", "assay": "SelectScreen Kinase Profiling: CHEK1 (CHK1)", "type": "biochemical", "details": "tested at 300-350 nM", "source_text": "as §1"}, "DYRK3": {"biological_target": "DYRK3 (Homo sapiens (Human), UniProt O43781)", "assay": "SelectScreen Kinase Profiling: DYRK3", "type": "biochemical", "details": "tested at 300-350 nM", "source_text": "as §1"}, "FRAP1 (mTOR)": {"biological_target": "FRAP1 (mTOR) (Homo sapiens (Human), UniProt P42345)", "assay": "SelectScreen Kinase Profiling: FRAP1 (mTOR)", "type": "biochemical", "details": "tested at 300-350 nM", "source_text": "as §1"}, "GSK3B (GSK3 beta)": {"biological_target": "GSK3B (GSK3 beta) (Homo sapiens (Human), UniProt P49841)", "sequence (P49841 whole entry)": "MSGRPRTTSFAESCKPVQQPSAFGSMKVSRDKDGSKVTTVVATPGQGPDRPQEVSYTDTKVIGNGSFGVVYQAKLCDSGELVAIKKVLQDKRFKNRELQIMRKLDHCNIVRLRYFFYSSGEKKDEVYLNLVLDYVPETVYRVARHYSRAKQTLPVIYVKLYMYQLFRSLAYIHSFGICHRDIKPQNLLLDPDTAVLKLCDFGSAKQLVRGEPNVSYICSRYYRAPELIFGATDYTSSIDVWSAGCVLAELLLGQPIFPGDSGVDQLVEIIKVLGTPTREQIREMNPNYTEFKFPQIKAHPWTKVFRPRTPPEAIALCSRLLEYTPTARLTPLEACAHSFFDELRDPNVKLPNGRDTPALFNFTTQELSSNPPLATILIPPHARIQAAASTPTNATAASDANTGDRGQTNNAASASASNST", "assay": "SelectScreen Kinase Profiling: GSK3B (GSK3 beta)", "type": "biochemical", "details": "tested at 300-350 nM", "source_text": "as §1"}, "IRAK4": {"biological_target": "IRAK4 (Homo sapiens (Human), UniProt Q9NWZ3)", "assay": "SelectScreen Kinase Profiling: IRAK4", "type": "biochemical", "details": "tested at 300-350 nM", "source_text": "as §1"}, "KIT": {"biological_target": "KIT (Homo sapiens (Human), UniProt P10721)", "assay": "SelectScreen Kinase Profiling: KIT", "type": "biochemical", "details": "tested at 300-350 nM", "source_text": "as §1"}, "MAPK1 (ERK2)": {"biological_target": "MAPK1 (ERK2) (Homo sapiens (Human), UniProt P28482)", "assay": "SelectScreen Kinase Profiling: MAPK1 (ERK2)", "type": "biochemical", "details": "tested at 300-350 nM", "source_text": "as §1"}, "NTRK1 (TRKA)": {"biological_target": "NTRK1 (TRKA) (Homo sapiens (Human), UniProt P04629)", "sequence (P04629 33-796)": "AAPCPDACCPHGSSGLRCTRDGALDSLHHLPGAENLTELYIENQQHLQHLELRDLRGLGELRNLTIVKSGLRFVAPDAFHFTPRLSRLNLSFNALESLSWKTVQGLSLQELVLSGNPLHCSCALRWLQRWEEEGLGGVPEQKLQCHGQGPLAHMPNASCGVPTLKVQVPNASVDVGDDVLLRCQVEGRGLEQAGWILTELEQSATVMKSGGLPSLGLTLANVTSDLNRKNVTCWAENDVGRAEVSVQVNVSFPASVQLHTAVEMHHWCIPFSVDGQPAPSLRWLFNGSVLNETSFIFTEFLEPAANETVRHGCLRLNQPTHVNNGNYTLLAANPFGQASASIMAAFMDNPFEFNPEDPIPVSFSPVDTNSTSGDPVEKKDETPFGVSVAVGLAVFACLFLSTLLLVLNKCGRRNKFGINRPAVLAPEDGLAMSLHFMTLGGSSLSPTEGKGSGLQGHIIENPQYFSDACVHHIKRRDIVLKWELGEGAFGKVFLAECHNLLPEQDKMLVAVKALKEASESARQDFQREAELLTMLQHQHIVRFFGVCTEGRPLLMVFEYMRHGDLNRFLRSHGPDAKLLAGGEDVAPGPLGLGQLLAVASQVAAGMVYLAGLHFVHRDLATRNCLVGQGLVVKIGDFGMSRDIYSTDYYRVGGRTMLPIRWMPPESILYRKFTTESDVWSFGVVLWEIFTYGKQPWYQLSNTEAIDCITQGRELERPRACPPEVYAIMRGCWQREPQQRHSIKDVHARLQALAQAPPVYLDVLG", "assay": "SelectScreen Kinase Profiling: NTRK1 (TRKA)", "type": "biochemical", "details": "tested at 300-350 nM", "source_text": "as §1"}, "PLK1": {"biological_target": "PLK1 (Homo sapiens (Human), UniProt P53350)", "assay": "SelectScreen Kinase Profiling: PLK1", "type": "biochemical", "details": "tested at 300-350 nM", "source_text": "as §1"}, "PRKACA (PKA)": {"biological_target": "PRKACA (PKA) (Homo sapiens (Human), UniProt P17612)", "assay": "SelectScreen Kinase Profiling: PRKACA (PKA)", "type": "biochemical", "details": "tested at 300-350 nM", "source_text": "as §1"}, "PRKCB1 (PKC beta I)": {"biological_target": "PRKCB1 (PKC beta I) (Homo sapiens (Human), UniProt P05771)", "sequence (P05771 whole entry)": "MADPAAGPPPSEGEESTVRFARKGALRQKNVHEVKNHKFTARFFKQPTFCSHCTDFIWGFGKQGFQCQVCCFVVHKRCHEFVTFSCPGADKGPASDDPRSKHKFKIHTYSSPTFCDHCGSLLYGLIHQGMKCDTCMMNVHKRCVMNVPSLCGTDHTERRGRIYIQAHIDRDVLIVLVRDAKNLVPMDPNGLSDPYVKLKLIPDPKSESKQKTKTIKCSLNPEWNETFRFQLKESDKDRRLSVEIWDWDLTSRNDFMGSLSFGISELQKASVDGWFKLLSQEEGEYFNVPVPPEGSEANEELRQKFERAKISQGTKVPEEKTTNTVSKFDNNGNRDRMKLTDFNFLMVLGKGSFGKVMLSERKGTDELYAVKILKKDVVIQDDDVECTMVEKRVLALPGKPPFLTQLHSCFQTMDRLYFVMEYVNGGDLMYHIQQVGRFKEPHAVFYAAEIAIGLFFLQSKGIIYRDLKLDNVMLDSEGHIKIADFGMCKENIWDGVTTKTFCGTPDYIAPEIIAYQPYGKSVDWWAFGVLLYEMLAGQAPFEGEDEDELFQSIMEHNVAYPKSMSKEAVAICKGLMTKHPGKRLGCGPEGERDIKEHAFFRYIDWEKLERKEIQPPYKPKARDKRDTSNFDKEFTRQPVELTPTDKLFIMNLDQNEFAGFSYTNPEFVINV", "assay": "SelectScreen Kinase Profiling: PRKCB1 (PKC beta I)", "type": "biochemical", "details": "tested at 300-350 nM", "source_text": "as §1"}, "RET": {"biological_target": "RET (Homo sapiens (Human), UniProt P07949)", "sequence (P07949 29-1114)": "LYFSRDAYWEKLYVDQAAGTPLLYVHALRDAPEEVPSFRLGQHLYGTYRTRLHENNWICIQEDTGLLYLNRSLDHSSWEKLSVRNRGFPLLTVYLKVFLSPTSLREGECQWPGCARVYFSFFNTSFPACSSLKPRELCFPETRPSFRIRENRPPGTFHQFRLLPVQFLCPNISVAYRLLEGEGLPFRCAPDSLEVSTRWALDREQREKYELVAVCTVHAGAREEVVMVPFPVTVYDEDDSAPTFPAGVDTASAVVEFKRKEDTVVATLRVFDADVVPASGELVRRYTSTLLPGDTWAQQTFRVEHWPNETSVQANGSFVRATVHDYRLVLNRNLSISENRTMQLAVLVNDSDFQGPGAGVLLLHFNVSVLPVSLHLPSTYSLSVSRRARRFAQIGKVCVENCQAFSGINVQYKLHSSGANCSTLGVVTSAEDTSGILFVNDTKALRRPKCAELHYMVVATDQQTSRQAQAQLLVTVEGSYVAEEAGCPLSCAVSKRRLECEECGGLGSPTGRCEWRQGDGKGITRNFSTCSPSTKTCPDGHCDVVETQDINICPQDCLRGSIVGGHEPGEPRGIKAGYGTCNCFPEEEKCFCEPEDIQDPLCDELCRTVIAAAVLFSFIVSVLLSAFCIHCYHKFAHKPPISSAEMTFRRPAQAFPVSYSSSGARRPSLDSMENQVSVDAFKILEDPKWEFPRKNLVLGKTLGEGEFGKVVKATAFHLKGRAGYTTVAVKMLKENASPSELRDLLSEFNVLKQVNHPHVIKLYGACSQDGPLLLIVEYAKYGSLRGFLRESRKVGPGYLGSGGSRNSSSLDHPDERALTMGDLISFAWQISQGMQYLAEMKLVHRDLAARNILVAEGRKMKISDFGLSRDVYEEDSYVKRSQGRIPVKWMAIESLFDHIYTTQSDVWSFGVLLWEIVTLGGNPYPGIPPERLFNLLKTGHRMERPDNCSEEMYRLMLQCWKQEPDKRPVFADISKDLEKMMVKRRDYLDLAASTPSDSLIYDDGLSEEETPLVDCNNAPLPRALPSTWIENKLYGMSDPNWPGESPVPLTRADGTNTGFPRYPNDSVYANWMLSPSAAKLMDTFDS", "assay": "SelectScreen Kinase Profiling: RET", "type": "biochemical", "details": "tested at 300-350 nM"}, "ROCK1": {"biological_target": "ROCK1 (Homo sapiens (Human), UniProt Q13464)", "sequence (Q13464 whole entry)": "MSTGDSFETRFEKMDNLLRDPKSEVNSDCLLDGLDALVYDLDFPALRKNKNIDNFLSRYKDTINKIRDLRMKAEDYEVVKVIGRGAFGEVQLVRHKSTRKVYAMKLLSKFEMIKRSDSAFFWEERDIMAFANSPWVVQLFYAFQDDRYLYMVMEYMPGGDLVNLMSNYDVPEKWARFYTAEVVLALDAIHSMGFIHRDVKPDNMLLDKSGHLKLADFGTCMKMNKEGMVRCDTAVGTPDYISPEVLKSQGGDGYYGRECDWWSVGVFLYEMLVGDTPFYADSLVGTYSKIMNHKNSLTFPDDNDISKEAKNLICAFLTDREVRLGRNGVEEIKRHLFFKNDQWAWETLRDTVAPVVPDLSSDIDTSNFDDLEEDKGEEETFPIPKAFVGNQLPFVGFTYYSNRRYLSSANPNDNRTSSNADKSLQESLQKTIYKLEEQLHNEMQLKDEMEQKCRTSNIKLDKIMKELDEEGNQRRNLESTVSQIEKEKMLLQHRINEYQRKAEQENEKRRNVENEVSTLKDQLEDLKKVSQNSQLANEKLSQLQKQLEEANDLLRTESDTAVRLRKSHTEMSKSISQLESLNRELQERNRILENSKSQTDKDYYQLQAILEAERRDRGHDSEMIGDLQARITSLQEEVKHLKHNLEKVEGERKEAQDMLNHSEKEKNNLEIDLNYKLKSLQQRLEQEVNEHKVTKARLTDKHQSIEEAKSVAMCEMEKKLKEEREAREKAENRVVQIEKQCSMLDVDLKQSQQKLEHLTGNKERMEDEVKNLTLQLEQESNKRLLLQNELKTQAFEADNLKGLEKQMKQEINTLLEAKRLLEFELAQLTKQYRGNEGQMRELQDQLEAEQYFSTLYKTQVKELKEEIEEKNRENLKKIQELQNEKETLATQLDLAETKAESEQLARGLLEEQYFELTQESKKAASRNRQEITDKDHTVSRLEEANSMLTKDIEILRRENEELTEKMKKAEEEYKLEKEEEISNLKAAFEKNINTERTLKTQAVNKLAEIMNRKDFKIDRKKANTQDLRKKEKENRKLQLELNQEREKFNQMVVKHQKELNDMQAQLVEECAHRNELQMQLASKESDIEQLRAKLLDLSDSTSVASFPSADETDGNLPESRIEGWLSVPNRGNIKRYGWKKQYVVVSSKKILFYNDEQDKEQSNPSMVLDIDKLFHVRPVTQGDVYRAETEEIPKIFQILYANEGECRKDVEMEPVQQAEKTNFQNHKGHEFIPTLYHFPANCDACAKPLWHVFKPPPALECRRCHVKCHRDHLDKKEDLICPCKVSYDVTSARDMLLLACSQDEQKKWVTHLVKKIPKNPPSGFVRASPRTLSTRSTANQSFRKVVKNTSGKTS", "assay": "SelectScreen Kinase Profiling: ROCK1", "type": "biochemical", "details": "tested at 300-350 nM", "source_text": "as §1"}, "RPS6KB1 (p70S6K)": {"biological_target": "RPS6KB1 (p70S6K) (Homo sapiens (Human), UniProt P23443)", "assay": "SelectScreen Kinase Profiling: RPS6KB1 (p70S6K)", "type": "biochemical", "details": "tested at 300-350 nM", "source_text": "as §1"}}, "note": "Like-named read-outs stand apart in the source and are kept apart here.", "data": [{"smiles": "C=CCn1c(=O)c2cnc(Nc3ccc(N4CCN(C)CC4)cc3)nc2n1-c1cccc(N=S(C)(C)=O)n1", "note": "[Example 5, 1-(6-{[Dimethyl(oxo)-λ^6-sulfanylidene]amino}pyridine-2-yl)-6-{[4-(4-methylpiperazin-1-yl)phenyl]amino}-2-(prop-2-en-1-yl)-1H,2H,3H-pyrazolo[3,4-d]pyrimidin-3-one]", "values": [{"measurement": "EC50", "setting": "[1]; 8 h, Table 2, colorectal cancer cells, eight hours incubation, read-out: ELISA p-CDC2 EC50", "value": 12, "unit": "nM"}, {"measurement": "EC50", "setting": "[1]; Table 3, read-out: ELISA p-CDC2 EC50", "value": 12, "unit": "nM"}, {"measurement": "EC50", "setting": "[1]; Table 5, data obtained as described in the experimental section of the current invention, read-out: ELISA/nM", "value": 12, "unit": "nM"}, {"measurement": "EC50", "setting": "HT29 cells", "value": 33, "unit": "nM"}, {"measurement": "inhibition of AKT1 (PKB alpha)", "setting": "AKT1 (PKB alpha)", "value": "− (inhibition under 50% (tested at 300-350 nM))"}, {"measurement": "inhibition of BTK", "setting": "BTK", "value": "− (inhibition under 50% (tested at 300-350 nM))"}, {"measurement": "inhibition of CDK1/cyclin B", "setting": "CDK1/cyclin B", "value": "− (inhibition under 50% (tested at 300-350 nM))"}, {"measurement": "inhibition of CHEK1 (CHK1)", "setting": "CHEK1 (CHK1)", "value": "− (inhibition under 50% (tested at 300-350 nM))"}, {"measurement": "inhibition of DYRK3", "setting": "DYRK3", "value": "− (inhibition under 50% (tested at 300-350 nM))"}, {"measurement": "inhibition of FRAP1 (mTOR)", "setting": "FRAP1 (mTOR)", "value": "− (inhibition under 50% (tested at 300-350 nM))"}, {"measurement": "inhibition of GSK3B (GSK3 beta)", "setting": "GSK3B (GSK3 beta)", "value": "− (inhibition under 50% (tested at 300-350 nM))"}, {"measurement": "inhibition of IRAK4", "setting": "IRAK4", "value": "− (inhibition under 50% (tested at 300-350 nM))"}, {"measurement": "inhibition of KIT", "setting": "KIT", "value": "− (inhibition under 50% (tested at 300-350 nM))"}, {"measurement": "inhibition of MAPK1 (ERK2)", "setting": "MAPK1 (ERK2)", "value": "− (inhibition under 50% (tested at 300-350 nM))"}, {"measurement": "inhibition of NTRK1 (TRKA)", "setting": "NTRK1 (TRKA)", "value": "− (inhibition under 50% (tested at 300-350 nM))"}, {"measurement": "inhibition of PLK1", "setting": "PLK1", "value": "− (inhibition under 50% (tested at 300-350 nM))"}, {"measurement": "inhibition of PRKACA (PKA)", "setting": "PRKACA (PKA)", "value": "− (inhibition under 50% (tested at 300-350 nM))"}, {"measurement": "inhibition of PRKCB1 (PKC beta I)", "setting": "PRKCB1 (PKC beta I)", "value": "− (inhibition under 50% (tested at 300-350 nM))"}, {"measurement": "inhibition of RET", "setting": "RET", "value": "− (inhibition under 50% (tested at 300-350 nM))"}, {"measurement": "inhibition of ROCK1", "setting": "ROCK1", "value": "− (inhibition under 50% (tested at 300-350 nM))"}, {"measurement": "inhibition of RPS6KB1 (p70S6K)", "setting": "RPS6KB1 (p70S6K)", "value": "− (inhibition under 50% (tested at 300-350 nM))"}]}]}
